Data from US6897319B2, “Useful aroyl pyrrole heteroaryl methanones and methanols” (Ortho-McNeil Pharmaceutical, Inc., priority 2001, dated 2005).
Marks after values point to notes of the source that are not given here.

Legend:
[1] = test system: mechanical allodynia after L5 spinal nerve ligation; assay: Chung Model (spinal nerve ligation) antiallodynic effect; format: in vivo; settings: rat; for % MPE in the Chung Model: oral, screening dose (not given)
Source text: Procedure for Testing Antiallodynic Effect
The procedure used to detect the antiallodynic effect of a compound of the present invention for which there is a good correlation with human efficacy for the treatment of pain is the procedure for the measurement of allodynia found in the Chung Model (Kim S. H. and Chung J. M., An Experimental Model for Peripheral Neuropathy Produced by Segmental Spinal Nerve Ligation in the Rat, Pain, 1992, 50, 355-363). The antiallodynic effect of the composition of the present invention in the Chung Model is expressed in % MPE (Maximum Possible Effect).
Male Sprague-Dawley rats, weighing approximately 200 g each were anesthetized with isoflurane. The spinal nerve at the level of L5 was exposed through an incision just left of the dorsal midline and tightly ligated with 6-0 silk. At various times after surgery, animals were tested for mechanical allodynia with von Frey hairs (monofilaments which are calibrated to bend under a certain amount of pressure, ranging from 0.41 to 15.1 g). In order to calculate a paw withdrawal threshold (PWT), tactile allodynia was measured by recording the pressure at which the affected paw was withdrawn from graded stimuli according to the procedure of S. R. Chaplan, J. W. Pogrel, T. L. Yaksh, Role of Voltage-Dependent Calcium Channel Subtypes in Experimental Tactile Allodynia, J. Pharmacol. Exp. Ther., 1994, 269, 1117-1123. Normal rats can withstand at least 15 g of pressure without responding. Operated rats, however, can respond to as little as 0.25 g of pressure. The surgery was deemed successful if the animal responded with a PWT of less than 4 g of pressure applied to the affected paw. […] The PWT was used to calculate the % maximal possible effect (% MPE) according to the formula: %MPE=100×[(PWT−CT)/(CO−CT)]; wherein PWT is defined as Paw Withdrawal Threshold, CT is Control Threshold, and CO is Cut Off (defined as 15 g).
The sham operation consisted of a similar surgery; the spinal nerve was visualized without being ligated.
Compounds selected from Formula (I) and Formula (II) were tested for activity in treating or modulating neuropathic pain by being dissolved or suspended in either water or hydroxypropyl methylcellulose, respectively. Postoperative animals between 14 to 42 days were fasted overnight prior to dosing. Animals were orally dosed and dosage volumes were calculated on a 4 mL/kg basis.

[2] = test system: voltage-gated sodium channels; assay: Fluorometric membrane potential assay in SK-N-SH cells (veratridine stimulus, FLIPR); format: cell-based; settings: 10 μM compound, 5 μM veratridine
Procedure: Screening Assay for Voltage-Gated Sodium Channel Antagonists Fluorometric Membrane Potential Assay
(§1) SK-N-SH neuroblastoma cells were maintained in a propagation medium containing modified Eagle's medium and 10% (v/v) fetal bovine serum and were incubated at 37° C. in a 5% CO2 atmosphere. Only cells with fewer than 20 passages were used in each assay. All drugs were prepared in DMSO, and the final concentration of solvent was less than 0.1% (v/v). Veratridine, a toxin that selectively promotes persistent activation of voltage-gated sodium channels, served as the stimulus. 24 hr prior to testing, 1×10^5 cells/well were plated into 96-well plates specifically designed for use in a fluorescent imaging plate reader (FLIPR) (Molecular Devices, Sunnyvale, Calif.)
Prior to screening, monolayers of cells were loaded with 100 μL/well of a proprietary voltage-sensitive dye (Molecular Devices, Sunnyvale, Calif.) for 30 min at 37° C. After this incubation period, the cells were stimulated with 5 μM veratridine in the presence or absence of investigational compounds (prepared at a final concentration of 10 μM in DMSO). A sample containing 5 μM veratridine and 10 μM tetrodotoxin accounted for nonspecific activity. The fluorescence was monitored by the FLIPR (Molecular Devices) from 10 sec prior to drug addition (50 μL) to 170 sec after drug addition at 25° C. During sodium channel activation, the cells depolarize and the dye associates with cell membranes, resulting in increased fluorescence.

[3] = test system: maximal electroshock extensor seizure; assay: Mouse maximal electroshock test (MES) anticonvulsant model; format: in vivo; settings: oral
Procedure: Procedure for Testing in Mouse Anticonvulsant Model
The activity of the present compounds as anticonvulsant agents was determined using a standard mouse “maximal electroshock test” (MES). In this test, activity was indicated by a block of the […] extensor seizure, as described by Swinyard, et al. (J. Pharmacol. Exptl. Therap., 1952, 106, 319). A more recent description of current anticonvulsant drug screening is given in Swinyard, et al., in Epilepsia, 1978, 19, 409.
The anticonvulsant activity of the instant compounds is shown in Table 5 and was evaluated according to the Swinyard (1952) method. The abbreviations used in the table have the following meanings: mpk refers to the dose orally administered in “mg per Kg;” and, ED50 refers to the “50% Effective Dose” orally administered in mpk. The values marked by an * represent the number of mice protected/number of mice tested; therefore, a value of 3/3 represents that the number of mice protected matched the number of mice tested at the indicated dose.

[4] = test system: voltage-gated sodium channels; assay: [14C]guanidinium flux assay in SK-N-SH cells (veratridine stimulus); format: cell-based; settings: 10 μM compound, 100 μM veratridine
Procedure: Screening Assay for Voltage-Gated Sodium Channel Antagonists [^14C] Guanidinium Flux Assay
as §1, with “stimulus.” for “stimulus. 24 hr prior to testing, 1×10^5 cells/well were plated into 96-well plates specifically designed for use in a fluorescent imaging plate reader (FLIPR) (Molecular Devices, Sunnyvale, Calif.)”
SK-N-SH cells were plated at 1×10^5 cells/well in 96-well Cytostar-T microscintillating plates in propagation medium and experiments were performed 6-7 days after plating. Prior to assay, the SK-N-SH cells were washed twice with assay buffer containing 50 mM HEPES (pH 7.45), 5.4 mM potassium chloride, 0.8 mM magnesium chloride, 130 mM choline chloride, 5.5 mM glucose and 0.1 mg/mL bovine serum albumin. Next, the plates were allowed to equilibrate for 10 min at 37° C. in assay buffer. After this incubation period, the cells were stimulated with 100 μM veratridine in the presence or absence of investigational compounds prepared in a 96-well plate (prepared at a final concentration of 10 μM in DMSO). The 96-well dosing plate was prepared by mixing 25 μL of a drug/assay buffer solution per well with 25 μL of 0.7 μCi/mL [^14C]guanidine hydrochloride in assay buffer. 50 μL aliquots from the dosing plate were then added to the cells. One sample containing 100 μM veratridine and 10 μM tetrodotoxin accounted for nonspecific activity. The plates were incubated for 1 hr at room temperature and the radioactivity was counted in a 1450 Microbeta scintillation counter.

| Structure (SMILES) | % MPE in the Chung Model [1] [%] | % FI at 10 μM (% fluorescence inhibition) [2] [%] | MES Response, number of mice protected/number of mice tested ([3]; @ 100 mpk) | MES Response, number of mice protected/number of mice tested ([3]; @ 300 mpk) | % GFI at 10 μM (% guanidinium flux inhibition) [4] [%] | MES Response, number of mice protected/number of mice tested ([3]; @ 30 mpk) | ED50 ([1]; po, orally administered) [mg/kg] | ED50 in the Chung Model ([1]; orally administered) |
| --- | --- | --- | --- | --- | --- | --- | --- | --- |
| Cn1cc(C(=O)c2ccncc2)cc1C(=O)c1ccccc1 [Cpd 2, (5-Benzoyl-1-methyl-1H-pyrrol-3-yl)pyridin-4-ylmethanone] | 7 | 76 | – | – | – | – | – | – |
| Cc1ccc(C(=O)c2cc(C(=O)c3ccncc3)cn2C)cc1.Cl [Cpd 3, [1-Methyl-5-(4-methylbenzoyl)-1H-pyrrol-3-yl]pyridin-4-ylmethanone Hydrochloride] | 5 | 45 | 3/3* @ 100 mpk | – | – | – | – | – |
| Cl.Cn1cc(C(=O)c2ccncc2)cc1C(=O)c1cccs1 [Cpd 4, [1-Methyl-5-(thiophene-2-carbonyl)-1H-pyrrol-3-yl]pyridin-4-ylmethanone hydrochloride] | – | 49 | – | 0/1* @ 300 mpk | – | – | – | – |
| Cl.Cn1cc(C(=O)c2cccnc2)cc1C(=O)c1ccc(Cl)cc1.Cn1cc(C(=O)c2cccnc2)cc1C(=O)c1ccc(Cl)cc1.O [Cpd 5, [5-(4-Chlorobenzoyl)-1-methyl-1H-pyrrol-3-yl]pyridin-3-ylmethanone hydrochoride hydrate [2:1:1]] | 9 | 26 | – | – | 55 | – | – | – |
| Cn1cc(C(=O)c2ccccn2)cc1C(=O)c1ccc(Cl)cc1 [Cpd 6, [5-(4-Chlorobenzoyl)-1-methyl-1H-pyrrol-3-yl]pyridin-2-yl-methanone] | 12 | 25 | – | – | 74 | 1/1* @ 30 mpk | – | – |
| Cl.Cn1cc(C(=O)c2ccc(F)cc2)cc1C(=O)c1cccnc1 [Cpd 7, (4-Fluorophenyl)-[1-methyl-5-(pyridine-3-carbonyl)-1H-pyrrol-3-yl]methanone Hydrochloride] | – | 45 | 2/3* @ 100 mpk | – | 57 | – | 22 | – |
| Cn1cc(C(=O)c2ccc3ccccc3c2)cc1C(=O)c1cccnc1 [Cpd 8, [1-Methyl-5-(pyridine-3-carbonyl)-1H-pyrrol-3-yl]naphthalen-2-yl-methanone] | 1.3 | 67 | – | 0/1* @ 300 mpk | 82 | – | – | – |
| Cn1cc(C(=O)c2ccc(Cl)cc2)cc1C(=O)c1ccc(Cl)nc1 [Cpd 9, (4-Chlorophenyl)-[5-(6-chloropyridine-3-carbonyl)-1-methyl-1H-pyrrol-3-yl]methanone] | 5 | 26 | – | – | 31 | – | – | – |
| Cn1cc(C(=O)c2ccc(F)cc2)cc1C(=O)c1ccccn1 [Cpd 10, (4-Fluorophenyl)-[1-methyl-5-(pyridine-2-carbonyl)-1H-pyrrol-3-yl]methanone] | 11 | 60 | – | 0/1* @ 300 mpk | 46 | – | – | – |
| Cn1cc(C(=O)c2ccc(F)cc2)cc1C(=O)c1ccncc1 [Cpd 11, (4-Fluorophenyl)-[1-methyl-5-(pyridine-4-carbonyl)-1H-pyrrol-3-yl]methanone] | 10 | 39 | – | 0/1* @ 300 mpk | – | – | – | – |
| Cn1cc(C(O)c2ccncc2)cc1C(=O)c1ccc(Cl)cc1 (stereo not drawn) [Cpd 12, (4-Chlorophenyl)-[4-(hydroxypyridin-4-yl-methyl)-1-methyl-1H-pyrrol-2-yl]-methanone] | 3.7 | 60 | – | – | – | – | – | – |
| Cn1cc(C(=O)c2cnc[nH]2)cc1C(=O)c1ccc(Cl)cc1 [Cpd 13, (4-Chlorophenyl)-[4-(3H-imidazole-4-carbonyl)-1-methyl-1H-pyrrol-2-yl]methanone] | – | 62 | – | – | 24 | – | – | – |
| Cn1cc(C(=O)c2cc[n+](C)cc2)cc1C(=O)c1ccc(Cl)cc1.O.O=S(=O)([O-])C(F)(F)F [Cpd 14, 4-[[5-(4-Chlorobenzoyl)-1-methyl-1H-pyrrol-3-yl]carbonyl]-1-methylpyridinium trifluoromethanesulfonate hydrate [5:1]] | – | 54 | – | – | 14 | – | – | – |
| Cn1cc(C(=O)c2cc[n+]([O-])cc2)cc1C(=O)c1ccc(Cl)cc1 [Cpd 15, (4-Chlorophenyl)-[1-methyl-4-(1-oxypyridine-4-carbonyl)-1H-pyrrol-2-yl]methanone] | 7.9 | 40 | – | – | 4 | – | – | – |
| Cn1cc(C(O)c2cc[n+]([O-])cc2)cc1C(=O)c1ccc(Cl)cc1 (stereo not drawn) [Cpd 16, (4-Chlorophenyl)-{4-[hydroxy-(1-oxy-pyridin-4-yl)methyl]-1-methyl-1H-pyrrol-2-yl}methanone] | – | 29 | – | – | – | – | – | ED50 = 29 mpk |
| Cc1c(C(=O)c2ccc(F)cc2)c(C)n(C)c1C(=O)c1cccnc1 [Cpd 17, (4-Fluorophenyl)-[1,2,4-trimethyl-5-(pyridine-3-carbonyl)-1H-pyrrol-3-yl]methanone] | 59 | 15 | – | – | – | – | – | – |
